≈ marks a conversion by molar mass, not a printed value.
Experiments:
Format in all cases: functional
Staphylococcus aureus = experiment: Antibacterial activity against Staphylococcus aureus ATCC 25923 by serial dilution method
Bacillus subtilis = experiment: Antibacterial activity against Bacillus subtilis by serial dilution method
Pseudomonas aeruginosa = experiment: Antibacterial activity against Pseudomonas aeruginosa ATCC 27853 by serial dilution method
Candida albicans = experiment: Antifungal activity against Candida albicans NCIM No. 3100 by serial dilution method
Escherichia coli = experiment: Antibacterial activity against Escherichia coli ATCC 25922 by serial dilution method

COc1ccc(-[n+]2noc([O-])c2C(=O)CSc2nnc(Cc3ccccc3)c(=O)n2N)cc1
MIC (Staphylococcus aureus): 0.25 µg/mL (≈ 0.536 µM) | MIC (Bacillus subtilis): 0.25 µg/mL (≈ 0.536 µM) | MIC (Pseudomonas aeruginosa): 0.25 µg/mL (≈ 0.536 µM) | MIC (Candida albicans): 0.25 µg/mL (≈ 0.536 µM) | MIC (Escherichia coli): 0.25 µg/mL (≈ 0.536 µM)

Cc1ccc(-[n+]2noc([O-])c2C(=O)CSc2nnc(Cc3ccccc3)c(=O)n2N)cc1
MIC (Staphylococcus aureus): 0.25 µg/mL (≈ 0.555 µM) | MIC (Bacillus subtilis): 0.25 µg/mL (≈ 0.555 µM) | MIC (Pseudomonas aeruginosa): 0.25 µg/mL (≈ 0.555 µM) | MIC (Candida albicans): 0.25 µg/mL (≈ 0.555 µM) | MIC (Escherichia coli): 0.25 µg/mL (≈ 0.555 µM)

Cc1ccc(-[n+]2noc([O-])c2C(=O)CSc2nnc(Cc3ccc(Br)cc3)c(=O)n2N)cc1
MIC (Staphylococcus aureus): 0.25 µg/mL (≈ 0.472 µM) | MIC (Bacillus subtilis): 0.25 µg/mL (≈ 0.472 µM) | MIC (Pseudomonas aeruginosa): 0.25 µg/mL (≈ 0.472 µM) | MIC (Candida albicans): 0.25 µg/mL (≈ 0.472 µM) | MIC (Escherichia coli): 0.25 µg/mL (≈ 0.472 µM)

Cc1ccc(-[n+]2noc([O-])c2C(=O)CSc2nnc(Cc3ccc(Cl)cc3)c(=O)n2N)cc1
MIC (Staphylococcus aureus): 0.25 µg/mL (≈ 0.516 µM) | MIC (Bacillus subtilis): 0.25 µg/mL (≈ 0.516 µM) | MIC (Pseudomonas aeruginosa): 0.25 µg/mL (≈ 0.516 µM) | MIC (Candida albicans): 0.25 µg/mL (≈ 0.516 µM) | MIC (Escherichia coli): 0.25 µg/mL (≈ 0.516 µM)

Nn1c(SCC(=O)c2c([O-])on[n+]2-c2ccccc2)nnc(Cc2ccc(Br)cc2)c1=O
MIC (Staphylococcus aureus): 0.25 µg/mL (≈ 0.485 µM) | MIC (Bacillus subtilis): 0.25 µg/mL (≈ 0.485 µM) | MIC (Pseudomonas aeruginosa): 0.25 µg/mL (≈ 0.485 µM) | MIC (Candida albicans): 0.25 µg/mL (≈ 0.485 µM) | MIC (Escherichia coli): 0.25 µg/mL (≈ 0.485 µM)

Nn1c(SCC(=O)c2c([O-])on[n+]2-c2ccccc2)nnc(Cc2ccc3c(c2)OCO3)c1=O
MIC (Staphylococcus aureus): 0.25 µg/mL (≈ 0.52 µM) | MIC (Bacillus subtilis): 0.25 µg/mL (≈ 0.52 µM) | MIC (Pseudomonas aeruginosa): 0.25 µg/mL (≈ 0.52 µM) | MIC (Candida albicans): 0.25 µg/mL (≈ 0.52 µM) | MIC (Escherichia coli): 0.25 µg/mL (≈ 0.52 µM)

Nn1c(SCC(=O)c2c([O-])on[n+]2-c2ccccc2)nnc(Cc2ccc(Cl)cc2)c1=O
MIC (Staphylococcus aureus): 0.25 µg/mL (≈ 0.531 µM) | MIC (Bacillus subtilis): 0.25 µg/mL (≈ 0.531 µM) | MIC (Pseudomonas aeruginosa): 0.25 µg/mL (≈ 0.531 µM) | MIC (Candida albicans): 0.25 µg/mL (≈ 0.531 µM) | MIC (Escherichia coli): 0.25 µg/mL (≈ 0.531 µM)

COc1ccc(-[n+]2noc([O-])c2C(=O)CSc2nnc(Cc3ccc(Br)cc3)c(=O)n2N)cc1
MIC (Staphylococcus aureus): 0.25 µg/mL (≈ 0.458 µM) | MIC (Bacillus subtilis): 0.25 µg/mL (≈ 0.458 µM) | MIC (Pseudomonas aeruginosa): 0.25 µg/mL (≈ 0.458 µM) | MIC (Candida albicans): 0.25 µg/mL (≈ 0.458 µM) | MIC (Escherichia coli): 0.25 µg/mL (≈ 0.458 µM)

Cc1ccc(-[n+]2noc([O-])c2C(=O)CSc2nnc(Cc3ccc4c(c3)OCO4)c(=O)n2N)cc1
MIC (Staphylococcus aureus): 0.25 µg/mL (≈ 0.506 µM) | MIC (Bacillus subtilis): 0.25 µg/mL (≈ 0.506 µM) | MIC (Pseudomonas aeruginosa): 0.25 µg/mL (≈ 0.506 µM) | MIC (Candida albicans): 0.25 µg/mL (≈ 0.506 µM) | MIC (Escherichia coli): 0.25 µg/mL (≈ 0.506 µM)

COc1ccc(-[n+]2noc([O-])c2C(=O)CSc2nnc(Cc3ccc(Cl)cc3)c(=O)n2N)cc1
MIC (Staphylococcus aureus): 0.25 µg/mL (≈ 0.499 µM) | MIC (Bacillus subtilis): 0.25 µg/mL (≈ 0.499 µM) | MIC (Pseudomonas aeruginosa): 0.25 µg/mL (≈ 0.499 µM) | MIC (Candida albicans): 0.25 µg/mL (≈ 0.499 µM) | MIC (Escherichia coli): 0.25 µg/mL (≈ 0.499 µM)

Nn1c(SCC(=O)c2c([O-])on[n+]2-c2ccccc2)nnc(Cc2ccccc2)c1=O
MIC (Staphylococcus aureus): 0.25 µg/mL (≈ 0.573 µM) | MIC (Bacillus subtilis): 0.25 µg/mL (≈ 0.573 µM) | MIC (Pseudomonas aeruginosa): 0.25 µg/mL (≈ 0.573 µM) | MIC (Candida albicans): 0.25 µg/mL (≈ 0.573 µM) | MIC (Escherichia coli): 0.25 µg/mL (≈ 0.573 µM)

Nn1c(SCC(=O)c2c([O-])on[n+]2-c2ccccc2)nnc(Cc2ccc([N+](=O)[O-])cc2)c1=O
MIC (Staphylococcus aureus): 0.5 µg/mL (≈ 1.04 µM) | MIC (Bacillus subtilis): 0.25 µg/mL (≈ 0.519 µM) | MIC (Pseudomonas aeruginosa): 0.25 µg/mL (≈ 0.519 µM) | MIC (Candida albicans): 0.25 µg/mL (≈ 0.519 µM) | MIC (Escherichia coli): 0.25 µg/mL (≈ 0.519 µM)

OC(Cn1cncn1)(Cn1cncn1)c1ccc(F)cc1F [FLUCONAZOLE]
MIC (Candida albicans): 0.25 µg/mL (≈ 0.816 µM)

NC(=O)N/N=C/c1ccc([N+](=O)[O-])o1 [NITROFURAZONE]
MIC (Staphylococcus aureus): 0.5 µg/mL (≈ 2.52 µM) | MIC (Bacillus subtilis): 0.5 µg/mL (≈ 2.52 µM) | MIC (Pseudomonas aeruginosa): 0.5 µg/mL (≈ 2.52 µM) | MIC (Escherichia coli): 0.25 µg/mL (≈ 1.26 µM)

Reference: ChEMBL document CHEMBL1154470, “Synthesis and antimicrobial activities of a new series of 4-S-[4(1)-amino-5(1)-oxo-6(1)-substituted benzyl-4(1),5(1)-dihydro-1(1),2(1),4(1)-triazin-3-yl]mercaptoacetyl-3-arylsydnones” (2008)
